Results as given in patent US10646454B2, “Microcell delivery systems including charged or magnetic particles for regulating rate of administration of actives” (E INK CALIFORNIA, LLC, priority 2017, dated 2020).
Like-named read-outs stand apart in the source and are kept apart here.

Conditions: for release profile: versus control, FIG. 12
Procedure: Two layers of dialysis tubing (Thermo-Fisher, Waltham, Mass.) were cut to fit across the opening at the joint of the Franz cell. For control measurements, 500 μL of a 1.3 mg/mL solution of nicotine in D.I. water was pipetted into the top of the cell. Samples were removed from the receptor cell at various time points as indicated in the graph in FIG. 12.
Subsequent experiments added small amounts of polymer-coated carbon nanoparticles between the two layers of dialysis tubing. The overall coverage was approximated by taking a photograph of the combined double layer nanoparticle sandwich from the top and assessing the darkness of the layer. […] For approximately 35% coverage [circles] and for full (100%) coverage [triangles], a sample of 500 μL of a 1.3 mg/mL solution of nicotine in D.I. water was pipetted into the top of the cell and samples were removed at various time points.

CN1CCCC1c1cccnc1 (stereo not drawn) [nicotine]
release profile (approximately 35% coverage with polymer-coated carbon nanoparticles between two layers of dialysis tubing): very similar to the control
reduction in the total nicotine delivered over 24 hours (full (100%) coverage with polymer-coated carbon nanoparticles between two layers of dialysis tubing, versus control without particles, 500 μL of 1.3 mg/mL nicotine in D.I. water): 50%
release profile (full (100%) coverage with polymer-coated carbon nanoparticles between two layers of dialysis tubing): sizeable difference
